Source: US12209102B2, “Heterocyclic compounds and uses thereof” (Kumquat Biosciences Inc., priority 2022, dated 2025)

Experiments:
K-Ras G12D = target: T1, K-Ras G12D (Homo sapiens, UniProt P01116, G12D); assay: HTRF resonance energy transfer assay, K-Ras G12D / SOS1 interaction; type: biochemical; conditions: HTRF assay of Example 5; read-out: IC50 against K-Ras G12D
T1 construct: made in house; host or cells: E. coli BL21 (DE3)
Summary of the method: (§1)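 GST-tagged K-Ras (WT or mutant) bound to anti-GST-Eu donor was mixed with His-hSOS1 bound to anti-6His-XL665 acceptor in ~5 mM HEPES pH 7.4, 150 mM NaCl, 1 mM DTT, 0.05% BSA, 0.0025% Igepal. HTRF (ex 337, em 620/665 nm) was read after ~10 min or longer. IC50 came from the 665/620 ratio over duplicates from 10 μM to 0.01 μM.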

K-Ras G12S = target: T2, K-Ras G12S (Homo sapiens, UniProt P01116, G12S); assay: HTRF resonance energy transfer assay, K-Ras G12S / SOS1 interaction; type: biochemical; conditions: HTRF assay of Example 5; read-out: IC50 against K-Ras G12S
T2 construct: made in house; host or cells: E. coli BL21 (DE3)
Summary of the method: as §1

K-Ras G12V = target: T3, K-Ras G12V (Homo sapiens, UniProt P01116, G12V); assay: HTRF resonance energy transfer assay, K-Ras G12V / SOS1 interaction; type: biochemical; conditions: HTRF assay of Example 5; read-out: IC50 against K-Ras G12V
T3 construct: made in house; host or cells: E. coli BL21 (DE3)
Summary of the method: as §1

K-Ras WT = target: T4, K-Ras WT (Homo sapiens, UniProt P01116); assay: HTRF resonance energy transfer assay, K-Ras WT / SOS1 interaction; type: biochemical; conditions: HTRF assay of Example 5; read-out: IC50 against K-Ras WT
T4 construct: made in house; host or cells: E. coli BL21 (DE3)
Summary of the method: as §1

GP2D cells = assay: Ras cellular assay, growth of cells with K-Ras G12D mutation (CellTiter-Glo); type: cell-based; conditions: cell growth, Example 9, G12D mutation, read-out: IC50 against GP2D cells
A549 cells = assay: Ras cellular assay, growth of cells with K-Ras G12S mutation (CellTiter-Glo); type: cell-based; conditions: Homo sapiens, cell growth, Example 9, G12S mutation, read-out: IC50 against A549 cells
Summary of the method: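 A549 cells (K-Ras G12S) in RPMI-1640 with 10% heat-inactivated FBS, seeded e.g. 800 per well in standard or ultra-low-attachment 384-well plates, treated next day with a dilution series (e.g. 10-point, 3-fold). Viability by CellTiter-Glo luminescence about 6 days later; IC50 from four-parameter fit.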

SW620 cells = assay: Ras cellular assay, growth of cells with K-Ras G12V mutation (CellTiter-Glo); type: cell-based; conditions: Homo sapiens, SW-620; cell growth, Example 9, G12V mutation; read-out: IC50 against SW620 cells
Summary of the method: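 SW620 (K-Ras G12V) cells, e.g. 800/well in RPMI-1640 with 10% heat-inactivated FBS on standard or ultra-low attachment plates, were dosed the day after plating with e.g. a 10-point 3-fold series. Viability by CellTiter-Glo luminescence about 6 days later; IC50 from four-parameter fit.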

T4 sequence (P01116 1-188 isoform P01116-2): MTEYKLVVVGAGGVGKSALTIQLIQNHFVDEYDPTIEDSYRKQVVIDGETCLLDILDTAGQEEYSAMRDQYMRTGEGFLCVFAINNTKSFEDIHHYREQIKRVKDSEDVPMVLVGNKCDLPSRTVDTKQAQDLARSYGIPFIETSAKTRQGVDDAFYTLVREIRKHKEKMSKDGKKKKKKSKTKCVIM
T3 sequence (P01116 1-188 isoform P01116-2 G12V): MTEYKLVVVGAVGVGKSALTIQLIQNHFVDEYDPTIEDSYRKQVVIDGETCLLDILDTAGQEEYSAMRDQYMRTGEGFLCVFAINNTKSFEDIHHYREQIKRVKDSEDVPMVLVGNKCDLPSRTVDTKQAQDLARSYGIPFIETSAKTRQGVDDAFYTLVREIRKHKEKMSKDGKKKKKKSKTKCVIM
T1 sequence (P01116 1-188 isoform P01116-2 G12D): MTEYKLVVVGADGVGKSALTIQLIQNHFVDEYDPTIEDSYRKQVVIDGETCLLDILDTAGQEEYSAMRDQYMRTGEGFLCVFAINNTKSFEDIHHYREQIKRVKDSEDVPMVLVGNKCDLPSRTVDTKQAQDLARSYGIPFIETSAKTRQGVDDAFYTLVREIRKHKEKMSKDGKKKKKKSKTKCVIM
T2 sequence (P01116 1-188 isoform P01116-2 G12S): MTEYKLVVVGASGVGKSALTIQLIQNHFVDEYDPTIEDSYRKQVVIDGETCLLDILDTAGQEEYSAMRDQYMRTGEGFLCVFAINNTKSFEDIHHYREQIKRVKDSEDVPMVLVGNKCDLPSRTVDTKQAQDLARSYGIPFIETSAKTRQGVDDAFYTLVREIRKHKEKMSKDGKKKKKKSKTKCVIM

Row | SMILES | IC50 (K-Ras G12D) [nM] | IC50 (K-Ras G12S) [nM] | IC50 (K-Ras G12V) [nM] | IC50 (K-Ras WT) [nM] | IC50 (GP2D cells) [nM] | IC50 (A549 cells) [nM] | IC50 (SW620 cells) [nM]
1 | C[C@H]1CN(CC(F)F)c2nc(OC[C@@]34CCCN3C[C@H](F)C4)nc3c(F)c(-c4ccc(F)c5sc(N)c(C#N)c45)c(Cl)c(c23)O1 [Compound 1021, 2-amino-4-((6S)-8-chloro-4-(2,2-difluoroethyl)-10-fluoro-2-(((2R,7aS)-2-fluorotetrahydro-1H-pyrrolizin-7a(5H)-yl)methoxy)-6-methyl-5,6-dihydro-4H-[1,4]oxazepino[5,6,7-de]quinazolin-9-yl)-7-fluorobenzo[b]thiophene-3-carbonitrile] | < 100 | < 100 | < 100 | < 100 | < 500 | < 5000 | < 5000
2 | N#Cc1c(N)sc2c(F)ccc(-c3c(Cl)c4c5c(nc(OC[C@@]67CCCN6C[C@H](F)C7)nc5c3F)N(C3CCN(C(=O)C[C@H]5CCCO5)C3)CCO4)c12 (stereo partly drawn) [Compound 1024, 2-amino-4-(8-chloro-10-fluoro-2-(((2R,7aS)-2-fluorotetrahydro-1H-pyrrolizin-7a(5H)-yl)methoxy)-4-(1-(2-((R)-tetrahydrofuran-2-yl)acetyl)pyrrolidin-3-yl)-5,6-dihydro-4H-[1,4]oxazepino[5,6,7-de]quinazolin-9-yl)-7-fluorobenzo[b]thiophene-3-carbonitrile] | < 100 | < 100 | < 100 | < 100 | < 500 | < 5000 | < 5000
3 | CC(C)N1CCOc2c(Cl)c(-c3ccc(F)c4sc(N)c(C#N)c34)c(F)c3nc(OC[C@@]45CCCN4C[C@H](F)C5)nc1c23 [Compound 1025, 2-amino-4-(8-chloro-10-fluoro-2-(((2R,7aS)-2-fluorotetrahydro-1H-pyrrolizin-7a(5H)-yl)methoxy)-4-isopropyl-5,6-dihydro-4H-[1,4]oxazepino[5,6,7-de]quinazolin-9-yl)-7-fluorobenzo[b]thiophene-3-carbonitrile] | < 100 | < 100 | < 100 | < 100 | < 500 | < 5000 | < 5000
4 | N#Cc1c(N)sc2c(F)ccc(-c3c(Cl)c4c5c(nc(OC[C@@]67CCCN6C[C@H](F)C7)nc5c3F)N(CC(F)F)[C@@H](CNC=O)CO4)c12 [Compound 1028, N-(((5S)-9-(2-amino-3-cyano-7-fluorobenzo[b]thiophen-4-yl)-8-chloro-4-(2,2-difluoroethyl)-10-fluoro-2-(((2R,7aS)-2-fluorotetrahydro-1H-pyrrolizin-7a(5H)-yl)methoxy)-5,6-dihydro-4H-[1,4]oxazepino[5,6,7-de]quinazolin-5-yl)methyl)formamide] | < 100 | < 100 | < 100 | < 100 | < 500 | < 5000 | < 5000
5 | COC1(C(=O)N2CCC(N3CCOc4c(Cl)c(-c5ccc(F)c6sc(N)c(C#N)c56)c(F)c5nc(OC[C@@]67CCCN6C[C@H](F)C7)nc3c45)C2)CC1 (stereo partly drawn) [Compound 1038, 2-amino-4-(8-chloro-10-fluoro-2-(((2R,7aS)-2-fluorotetrahydro-1H-pyrrolizin-7a(5H)-yl)methoxy)-4-(1-(1-methoxycyclopropane-1-carbonyl)pyrrolidin-3-yl)-5,6-dihydro-4H-[1,4]oxazepino[5,6,7-de]quinazolin-9-yl)-7-fluorobenzo[b]thiophene-3-carbonitrile] | < 100 | < 100 | < 100 | < 100 | < 500 | < 5000 | < 5000
